# Test results taken from PubChem BioAssay (NCI).
#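 Cells were grown in 96-well plates and exposed to each compound for 48 hours at five concentrations; endpoints were interpolated linearly between bracketing concentrations, or set to the highest concentration if not reached. TGI is the concentration that stops growth completely.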
# Tests used:
# Assay in all cases: DTP human tumour cell line panel, 48 h
# [1] = tested on: 786-0 renal
# [2] = tested on: A549 NSCLC
# [3] = tested on: ACHN renal
# [4] = tested on: CAKI-1 renal
# [5] = tested on: CCRF-CEM leukemia
# [6] = tested on: COLO 205 colon
# [7] = tested on: DMS 114 small cell lung
# [8] = tested on: DMS 273 small cell lung
# [9] = tested on: HCT-116 colon
# [10] = tested on: HCT-15 colon
# [11] = tested on: HL-60(TB) leukemia
# [12] = tested on: HOP-18 NSCLC
# [13] = tested on: HOP-62 NSCLC
# [14] = tested on: HOP-92 NSCLC
# [15] = tested on: HT29 colon
# [16] = tested on: IGROV1 ovarian
# [17] = tested on: K-562 leukemia
# [18] = tested on: KM12 colon
# [19] = tested on: KM20L2 colon
# [20] = tested on: LOX IMVI melanoma
# [21] = tested on: LXFL 529 NSCLC
# [22] = tested on: M14 melanoma
# [23] = tested on: M19-MEL melanoma
# [24] = tested on: MALME-3M melanoma
# [25] = tested on: MOLT-4 leukemia
# [26] = tested on: NCI-H226 lung
# [27] = tested on: NCI-H23 lung
# [28] = tested on: NCI-H460 lung
# [29] = tested on: NCI-H522 lung
# [30] = tested on: OVCAR-3 ovarian
# [31] = tested on: OVCAR-4 ovarian
# [32] = tested on: OVCAR-5 ovarian
# [33] = tested on: OVCAR-8 ovarian
# [34] = tested on: RPMI-8226 leukemia
# [35] = tested on: RXF 393 renal
# [36] = tested on: SF-268 CNS
# [37] = tested on: SF-295 CNS
# [38] = tested on: SF-539 CNS
# [39] = tested on: SK-MEL-2 melanoma
# [40] = tested on: SK-MEL-28 melanoma
# [41] = tested on: SK-MEL-5 melanoma
# [42] = tested on: SK-OV-3 ovarian
# [43] = tested on: SN12C renal
# [44] = tested on: SR leukemia
# [45] = tested on: SW-620 colon
# [46] = tested on: TK-10 renal
# [47] = tested on: U251 CNS
# [48] = tested on: UACC-257 melanoma
# [49] = tested on: UACC-62 melanoma
# [50] = tested on: UO-31 renal
# [51] = tested on: A498 renal
# [52] = tested on: SNB-19 CNS
# [53] = tested on: SNB-75 CNS
# [54] = tested on: SNB-78 CNS
# [55] = tested on: EKVX NSCLC
# [56] = tested on: HCC-2998 colon
# [57] = tested on: BT-549 breast
# [58] = tested on: DU-145 prostate
# [59] = tested on: HS 578T breast
# [60] = tested on: MCF7 breast
# [61] = tested on: MDA-MB-231 breast
# [62] = tested on: MDA-MB-435
# [63] = tested on: MDA-N
# [64] = tested on: NCI/ADR-RES ovarian
# [65] = tested on: PC-3 prostate
# [66] = tested on: T-47D breast
smiles,measurement,setting,value
N#CC(NNC(=O)c1ccccc1O)c1ccc(O)cc1 (stereo not given),TGI,[1],> 100 µM
same,TGI,[2],> 100 µM
same,TGI,[3],> 100 µM
same,TGI,[4],98.9 µM
same,TGI,[5],> 100 µM
same,TGI,[6],> 100 µM
same,TGI,[7],8.62 µM
same,TGI,[8],> 100 µM
same,TGI,[9],> 100 µM
same,TGI,[10],> 100 µM
same,TGI,[11],74.9 µM
same,TGI,[12],> 100 µM
same,TGI,[13],> 100 µM
same,TGI,[14],> 100 µM
same,TGI,[15],> 100 µM
same,TGI,[16],> 100 µM
same,TGI,[17],> 100 µM
same,TGI,[18],> 100 µM
same,TGI,[19],> 100 µM
same,TGI,[20],> 100 µM
same,TGI,[21],> 100 µM
same,TGI,[22],> 100 µM
same,TGI,[23],> 100 µM
same,TGI,[24],> 100 µM
same,TGI,[25],> 100 µM
same,TGI,[26],55.1 µM
same,TGI,[27],> 100 µM
same,TGI,[28],> 100 µM
same,TGI,[29],> 100 µM
same,TGI,[30],74 µM
same,TGI,[31],> 100 µM
same,TGI,[32],> 100 µM
same,TGI,[33],> 100 µM
same,TGI,[34],> 100 µM
same,TGI,[35],12.2 µM
same,TGI,[36],> 100 µM
same,TGI,[37],> 100 µM
same,TGI,[38],> 100 µM
same,TGI,[39],78.5 µM
same,TGI,[40],> 100 µM
same,TGI,[41],> 100 µM
same,TGI,[42],> 100 µM
same,TGI,[43],> 100 µM
same,TGI,[44],> 100 µM
same,TGI,[45],> 100 µM
same,TGI,[46],> 100 µM
same,TGI,[47],> 100 µM
same,TGI,[48],> 100 µM
same,TGI,[49],5.97 µM
same,TGI,[50],11.9 µM
CCO[C@@H]1OC(=O)[C@](C)(C(C)=O)[C@@H]1C,TGI,[51],> 100 µM
same,TGI,[3],> 100 µM
same,TGI,[5],89.5 µM
same,TGI,[6],> 100 µM
same,TGI,[7],> 100 µM
same,TGI,[11],79.6 µM
same,TGI,[13],> 100 µM
same,TGI,[14],> 100 µM
same,TGI,[15],> 100 µM
same,TGI,[16],> 100 µM
same,TGI,[17],> 100 µM
same,TGI,[18],> 100 µM
same,TGI,[19],> 100 µM
same,TGI,[21],> 100 µM
same,TGI,[22],> 100 µM
same,TGI,[23],> 100 µM
same,TGI,[25],> 100 µM
same,TGI,[27],60.1 µM
same,TGI,[28],> 100 µM
same,TGI,[29],> 100 µM
same,TGI,[30],> 100 µM
same,TGI,[31],> 100 µM
same,TGI,[32],> 100 µM
same,TGI,[34],> 100 µM
same,TGI,[35],> 100 µM
same,TGI,[36],67.8 µM
same,TGI,[37],> 100 µM
same,TGI,[38],> 100 µM
same,TGI,[39],> 100 µM
same,TGI,[40],> 100 µM
same,TGI,[42],> 100 µM
same,TGI,[52],> 100 µM
same,TGI,[53],98.4 µM
same,TGI,[54],> 100 µM
same,TGI,[44],> 100 µM
same,TGI,[47],> 100 µM
same,TGI,[48],> 100 µM
same,TGI,[49],> 100 µM
same,TGI,[50],> 100 µM
Cc1cc(=O)[nH]c(NN2C(Cl)C(=O)C2c2ccco2)n1 (stereo not given),TGI,[2],> 100 µM
same,TGI,[3],> 100 µM
same,TGI,[5],45.6 µM
same,TGI,[6],> 100 µM
same,TGI,[7],> 100 µM
same,TGI,[8],> 100 µM
same,TGI,[55],> 100 µM
same,TGI,[56],> 100 µM
same,TGI,[9],> 100 µM
same,TGI,[10],> 100 µM
same,TGI,[11],39.3 µM
same,TGI,[12],58.8 µM
same,TGI,[13],> 100 µM
same,TGI,[14],69.8 µM
same,TGI,[15],> 100 µM
same,TGI,[16],> 100 µM
same,TGI,[17],> 100 µM
same,TGI,[18],> 100 µM
same,TGI,[19],> 100 µM
same,TGI,[20],> 100 µM
same,TGI,[21],> 100 µM
same,TGI,[22],> 100 µM
same,TGI,[23],> 100 µM
same,TGI,[25],> 100 µM
same,TGI,[27],> 100 µM
same,TGI,[28],> 100 µM
same,TGI,[30],79.4 µM
same,TGI,[31],> 100 µM
same,TGI,[32],> 100 µM
same,TGI,[33],> 100 µM
same,TGI,[34],38.3 µM
same,TGI,[35],> 100 µM
same,TGI,[36],> 100 µM
same,TGI,[38],85.9 µM
same,TGI,[39],99.7 µM
same,TGI,[41],> 100 µM
same,TGI,[43],77 µM
same,TGI,[52],> 100 µM
same,TGI,[53],68 µM
same,TGI,[54],> 100 µM
same,TGI,[44],> 100 µM
same,TGI,[45],> 100 µM
same,TGI,[46],> 100 µM
same,TGI,[47],> 100 µM
same,TGI,[48],> 100 µM
same,TGI,[49],63.6 µM
same,TGI,[50],> 100 µM
O=C(O)c1cc2ccccc2c(O)c1O,TGI,[1],27.6 µM
same,TGI,[51],51.7 µM
same,TGI,[2],38.5 µM
same,TGI,[3],31.8 µM
same,TGI,[57],30 µM
same,TGI,[4],33.9 µM
same,TGI,[5],> 58.6 µM
same,TGI,[6],31.4 µM
same,TGI,[58],32.3 µM
same,TGI,[55],51.1 µM
same,TGI,[56],35.8 µM
same,TGI,[9],30.7 µM
same,TGI,[10],42.6 µM
same,TGI,[11],> 74.3 µM
same,TGI,[13],33 µM
same,TGI,[14],> 54.9 µM
same,TGI,[59],45.4 µM
same,TGI,[15],49.3 µM
same,TGI,[16],34.7 µM
same,TGI,[17],> 58.8 µM
same,TGI,[18],30.4 µM
same,TGI,[20],14.9 µM
same,TGI,[22],16.3 µM
same,TGI,[24],3.78 µM
same,TGI,[60],28.4 µM
same,TGI,[61],32.7 µM
same,TGI,[62],3.33 µM
same,TGI,[63],4.01 µM
same,TGI,[25],> 66.8 µM
same,TGI,[26],42.7 µM
same,TGI,[27],22.5 µM
same,TGI,[28],41.8 µM
same,TGI,[29],28.9 µM
same,TGI,[64],41.5 µM
same,TGI,[30],28.9 µM
same,TGI,[31],35 µM
same,TGI,[32],32.1 µM
same,TGI,[33],27.4 µM
same,TGI,[65],37 µM
same,TGI,[34],> 76.1 µM
same,TGI,[35],31.7 µM
same,TGI,[36],32 µM
same,TGI,[37],29.4 µM
same,TGI,[38],38.1 µM
same,TGI,[39],14.6 µM
same,TGI,[40],18.1 µM
same,TGI,[41],8.18 µM
same,TGI,[42],29 µM
same,TGI,[43],31.5 µM
same,TGI,[52],35.8 µM
same,TGI,[53],31.7 µM
same,TGI,[44],> 79 µM
same,TGI,[45],34.8 µM
same,TGI,[66],57.7 µM
same,TGI,[46],40.7 µM
same,TGI,[47],31 µM
same,TGI,[48],23.1 µM
same,TGI,[49],13 µM
same,TGI,[50],35.4 µM
